Test results from patent publication US20130266557A1, “METHODS FOR TREATMENT OF A SARCOMA USING AN EPIMETABOLIC SHIFTER (COENZYME Q10)” (priority 2009, published 2013).

Key:
[1] = tested on: Aortic smooth muscle (HASMC); test: Induction of early apoptosis by CoQ10; format: cell-based; conditions: Heart: Aortic smooth muscle (HASMC)
Method: (§1) The effects of Coenzyme Q10 treatment on a variety of oncogenic and normal cell lines were examined and compared. The sensitivity of cells to Coenzyme Q10 was assessed by monitoring induction of apoptosis. CoQ10 treatment of cells was carried out as described in detail below in the Materials and Methods. Induction of apoptosis was assessed in the treated cells by monitoring indicators of early apoptosis (e.g., Bcl-2 expression, caspase activation and by using annexin V assays) as described below. From these studies, the minimal CoQ10 dosage, e.g., concentration of CoQ10 and time of treatment, required to induce apoptosis in the panel of cell lines was determined.
(§2) Cells were cultured in T-75 flasks with relevant medium supplemented with 10% Fetal Bovine Serum (FBS), 1% PSA (penicillin, streptomycin, amphotericin B) (Invitrogen and Cellgro) in a 37° C. incubator with 5% CO2 levels until 70-80% confluence was reached. To harvest cells for treatment, flasks were primed with 1 mL Trypsin, aspirated, trypsinized with an additional 3 mL, and incubated at 37° C. for 3-5 minutes. Cells were then neutralized with an equal volume of media and the subsequent solution was centrifuged at […] for 8 minutes. The supernatant was aspirated and the cells were resuspended with 8.5 ml of media. A mixture of 500 ul of the resuspension and 9.5 ml of […] was read twice by a coulter counter and the appropriate number of cells to be seeded into each dish was determined. Control and concentration ranging from 0-200 μM groups were examined in triplicate. From a 500 μM CoQ-10 stock solution, serial dilutions were performed to achieve desired experimental concentration in appropriate dishes. Dishes were incubated in a 37° C. incubator with 5% CO2 levels for 0-72 hours depending on cell type and experimental protocol.
(§3) The volume of sample to load per well was determined using the raw mean concentration of protein obtained from the BCA protein assay. Approximately 30-60 μg of protein were loaded for each treatment time point. Proteins were run in triplicate on 12% Tris-HCl ready gels (Bio-Rad) or hand cast gels in 1× running buffer at 85 and 100 volts. Proteins were then transferred onto nitrocellulose paper for an hour at 100 volts, and blocked for another hour in a 5% milk solution. Membranes were placed in primary antibody (1 uL Ab:1000 uL TBST) (Cell Signaling) overnight at […] The following day, membranes were washed three times for ten minutes each with Tris-Buffered Saline Tween-20 (TBST), and secondary antibody (anti-rabbit; 1 uL Ab: 1000 uL TBST) was applied for an hour at […] Membranes were washed again three times for ten minutes with TBST and chemoluminescence using Pico or Femto substrate was completed (Pierce). Membranes were then developed at time intervals that produced the best visual results. After developing, membranes were kept in TBST at […] until Actin levels could be measured.
(§4) Cells were washed twice in PBS10× and resuspended in Binding Buffer (0.1 M HEPES, pH 7.4; 1.4 M NaCl; 25 mM CaCl2). Samples of 100 μl were added to a culture tube with 5 μl of annexin-PE dye or […]. The cells were mixed and incubated without light at room temperature for 15 minutes. After which, 400 μl of 1×Binding Buffer was added to each sample and they were subjected to analysis by flow cytometry.

Ewing's sarcoma (NCI) = test: Induction of early apoptosis by CoQ10; format: cell-based
Method: as §1, §2, §3, §4

Fibroblasts (nFib) = test: Induction of early apoptosis by CoQ10; format: cell-based; conditions: SKIN: Fibroblasts (nFib)
Method: as §1, §2, §3, §4

[2] = tested on: Keratinocytes (Heka, Hekn); test: Induction of early apoptosis by CoQ10; format: cell-based; conditions: SKIN: Keratinocytes (Heka, Hekn)
Method: as §1, §2, §3, §4

MCF-7 = test: Induction of early apoptosis by CoQ10; format: cell-based
Method: as §1, §2, §3, §4

[3] = tested on: Mammary fiboblasts: 184A1 and 184B5; test: Induction of early apoptosis by CoQ10; format: cell-based; conditions: BREAST: Mammary fiboblasts 184A1 and 184B5
Method: as §1, §2, §3, §4

Melanocytes (Hema, LP) = test: Induction of early apoptosis by CoQ10; format: cell-based; conditions: SKIN: Melanocytes (Hema, LP)
Method: as §1, §2, §3, §4

Melanoma (Skmel 2) = test: Induction of early apoptosis by CoQ10; format: cell-based
Method: as §1, §2, §3, §4

Melanoma (Skmel 28) = test: Induction of early apoptosis by CoQ10; format: cell-based
Method: as §1, §2, §3, §4

Osteosarcoma (143b) = test: Induction of early apoptosis by CoQ10; format: cell-based
Method: as §1, §2, §3, §4

PaCa2 = test: Induction of early apoptosis by CoQ10; format: cell-based
Method: as §1, §2, §3, §4

[4] = tested on: SCC, Squamous cell carcinoma; test: Induction of early apoptosis by CoQ10; format: cell-based
Method: as §1, §2, §3, §4

SkBr-3 = test: Induction of early apoptosis by CoQ10; format: cell-based
Method: as §1, §2, §3, §4

[5] = Level and form of CoQ10 in mitochondrial enriched preparations; format: cell-based
Method: Experiments were carried out to confirm the entry of CoQ10 into cells and to determine the level and form of CoQ10 present in the cells. In particular, the level of Coenzyme Q10, as well as the form of CoQ10 (i.e., oxidized or reduced), present in the mitochondria was determined by analyzing mitochondrial enriched preparations from cells treated with CoQ10. […] In addition, changes in levels of proteins from mitochondria enriched samples were analyzed by using 2-D gel electrophoresis and protein identification by mass spectrometry characterization.

[6] = tested on: keratinocytes and dermal fibroblasts; test: Proliferation and migration of normal cells; format: cell-based; conditions: including keratinocytes and dermal fibroblasts
Excerpt: Moreover, a surprising divergent effect was observed on normal cells as compared to oncogenic cells.

[7] = rats, oral; cited from earlier work
[8] = cited from earlier work
skin cancer cells = conditions: culture of skin cancer cells but not normal cells; cited from earlier work

For Coenzyme Q10 [CoQ10], the “Indication of Early apoptosis (Bcl-2, annexin V, or caspase activation)” value (“Indication of Early apoptosis” below) [1] was “None”, the “Minimal CoQ10 Concentration required for induction of early apoptosis” value (from here on “Minimal CoQ10 Concentration required”) (Ewing's sarcoma (NCI)) was 5 µM and the “Treatment Time required for induction of early apoptosis” value (“Treatment Time required for induction” for short) (Ewing's sarcoma (NCI)) was 1 h. For the same substance, the “Indication of Early apoptosis” value (Fibroblasts (nFib)) was “None”, the “Indication of Early apoptosis” value [2] was “None” and the “Indication of Early apoptosis” value (MCF-7; BREAST: MCF-7) was “Strong”. The “Minimal CoQ10 Concentration required” value (MCF-7; MCF-7) was 50 µM, the “Treatment Time required for induction” value (MCF-7; MCF-7) was 48 h and the “Indication of Early apoptosis” value [3] was “None”. For the same substance, the “Indication of Early apoptosis” value (Melanocytes (Hema, LP)) was “None”, the “Minimal CoQ10 Concentration required” value (Melanoma (Skmel 2); Melanoma (Skmel 2)) was 25 µM and the “Treatment Time required for induction” value (Melanoma (Skmel 2); Melanoma (Skmel 2)) was 24 h. The “Indication of Early apoptosis” value (Melanoma (Skmel 2); SKIN: Melanoma (Skmel 2)) was “Very Strong”, the “Minimal CoQ10 Concentration required” value (Melanoma (Skmel 28); Melanoma (Skmel 28)) was 20 µM and the “Treatment Time required for induction” value (Melanoma (Skmel 28); Melanoma (Skmel 28)) was 24 h. For the same substance, the “Indication of Early apoptosis” value (Melanoma (Skmel 28); SKIN: Melanoma (Skmel 28)) was “Strong”, the “Indication of Early apoptosis” value (Osteosarcoma (143b); BONE: Osteosarcoma (143b)) was “Very Strong” and the “Minimal CoQ10 Concentration required” value (Osteosarcoma (143b); Osteosarcoma (143b)) was 50 µM. The “Treatment Time required for induction” value (Osteosarcoma (143b); Osteosarcoma (143b)) was 48 h, the “Indication of Early apoptosis” value (PaCa2; PANCREAS: PaCa2) was “Very Strong” and the “Minimal CoQ10 Concentration required” value (PaCa2; PaCa2) was 25 µM. The “Treatment Time required for induction” value (PaCa2; PaCa2) was 24 h, the “Minimal CoQ10 Concentration required” value ([4]; SCC) was 25 µM and the “Treatment Time required for induction” value ([4]; SCC) was 24 h. The “Indication of Early apoptosis” value ([4]; SKIN: SCC) was “Very Strong”, the “Indication of Early apoptosis” value (SkBr-3; BREAST: SkBr-3) was “Very Strong” and the “Minimal CoQ10 Concentration required” value (SkBr-3; SkBr-3) was 50 µM. For the same substance, the “Treatment Time required for induction” value (SkBr-3; SkBr-3) was 24 h, the “Level of Coenzyme Q10 present in the mitochondria” value ([5]; addition of exogenous Q10) was “increase in a time and dose dependent manner” and the “Form of CoQ10 present in the mitochondria” value ([5]; mitochondrial enriched preparations from treated cells) was “primarily in oxidized form”. The “Effect on normal cells” value [6] was “increased proliferation and migration”, the “Fraction of orally-administered CoQ10 absorbed” value [7] was 2-3% and the Solubility in water [8] was “insoluble in water”. For the same substance, the Rate of apoptosis (skin cancer cells) was “increase the rate of apoptosis”.
